Values quoted from earlier work in patent US20240117436A1, “METHODS OF TREATING LIPEDEMA INCLUDING AKR1C2 AS A THERAPEUTIC TARGET” (MAGI EUREGIO SCS, priority 2021, published 2024).
Where two headings read alike, the source gives them in different places.

How the values were obtained:
AKR1C1 = molecular target: T1, AKR1C1 (Homo sapiens, UniProt Q04828); settings: for kind of AKR1C1 inhibition: literature statements in the text
T1 sequence (Q04828 1-323): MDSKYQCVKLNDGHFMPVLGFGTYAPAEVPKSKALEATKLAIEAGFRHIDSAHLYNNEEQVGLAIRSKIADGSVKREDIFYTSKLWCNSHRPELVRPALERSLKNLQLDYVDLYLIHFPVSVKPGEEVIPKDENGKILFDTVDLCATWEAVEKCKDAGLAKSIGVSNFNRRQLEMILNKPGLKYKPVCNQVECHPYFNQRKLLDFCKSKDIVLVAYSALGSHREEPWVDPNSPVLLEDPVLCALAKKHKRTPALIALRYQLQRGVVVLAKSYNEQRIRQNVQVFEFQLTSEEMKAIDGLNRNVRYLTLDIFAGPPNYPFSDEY

AKR enzymes = settings: mid-nanomolar value; read-out: affinity of cofactor in binding AKR enzymes
PGE2 and PGF2α levels = settings: literature
[1] = AKR1C1, known from the literature

## CC(=O)Oc1ccccc1C(=O)O [Acetylsalicylic Acid]
AKR1C1; [1]
  Enzyme activity (inhibition/activation): inhibition

## O=C(O)Cc1ccccc1Nc1c(Cl)cccc1Cl [Diclofenac]
AKR1C1; [1]
  Enzyme activity (inhibition/activation): inhibition

## CC1(C)[C@@H](O)CC[C@]2(C)[C@H]3C(=O)C=C4[C@@H]5C[C@@](C)(C(=O)O)CC[C@]5(C)CC[C@@]4(C)[C@]3(C)CC[C@@H]12 [Glycyrrhetinic Acid]
AKR1C1; [1]
  Enzyme activity (inhibition/activation): inhibition

## CN1C(=O)CN=C(c2ccccc2F)c2cc([N+](=O)[O-])ccc21 [Flunitrazepam]
AKR1C1
  Enzyme activity (inhibition/activation): inhibition

## COc1c(O)cc(O)c2c(=O)cc(-c3ccccc3)oc12 [Wagonin]
AKR1C1; [1]
  Enzyme activity (inhibition/activation): inhibition

## CC(C)(C)c1cc(O)ccc1O [T-Butylhydroquinone]
AKR1C1; [1]
  Enzyme activity (inhibition/activation): activation

## O=c1cc(-c2ccc(O)c(O)c2)oc2cc(O)cc(O)c12 [Luteolin]
AKR1C1; [1]
  Enzyme activity (inhibition/activation): inhibition

## Oc1ccc(C=Cc2cc(O)cc(O)c2)cc1 [Resveratrol]
AKR1C1; [1]
  Enzyme activity (inhibition/activation): inhibition

## CC(C)Cc1ccc(C(C)C(=O)O)cc1 (centres unmarked) [Ibuprofen]
AKR1C1; [1]
  Enzyme activity (inhibition/activation): inhibition

## COc1ccc2cc([C@H](C)C(=O)O)ccc2c1 [Naproxen]
AKR1C1; [1]
  Enzyme activity (inhibition/activation): inhibition

## O=C1CC(c2ccccc2)Oc2ccccc21 (centres unmarked) [Flavanone]
AKR1C1; [1]
  Enzyme activity (inhibition/activation): inhibition

## CC1CN2CC(=O)Nc3ccc(Cl)cc3C2(c2ccccc2)O1 (centres unmarked) [Oxazolam]
AKR1C1; [1]
  Enzyme activity (inhibition/activation): inhibition

## O=C(O)c1cc(I)cc(I)c1O [3,5-Diiodosalicylic Acid]
AKR1C1; [1]
  Enzyme activity (inhibition/activation): inhibition

## CC/C(=C(/CC)c1ccc(O)cc1)c1ccc(O)cc1 [Diethylstilbestrol]
AKR1C1; [1]
  Enzyme activity (inhibition/activation): inhibition

## C=C(CC)C(=O)c1ccc(OCC(=O)O)c(Cl)c1Cl [Ethacrynic Acid]
AKR1C1; [1]
  Enzyme activity (inhibition/activation): activation

## CN1C(=O)CN=C(c2ccccc2)c2cc(Cl)ccc21 [Diazepam]
AKR1C1
  Enzyme activity (inhibition/activation): inhibition

## O=c1c(O)c(-c2ccccc2)oc2cc(O)ccc12 [3,7-Dihydroxyflavone]
AKR1C1; [1]
  Enzyme activity (inhibition/activation): inhibition

## C[C@H]1CCCC(=O)CCC/C=C/c2cc(O)cc(O)c2C(=O)O1 [Zearalenone]
AKR1C1; [1]
  Enzyme activity (inhibition/activation): inhibition

## C#C[C@]1(O)CC[C@H]2[C@@H]3CCC4=CC(=O)CC[C@@H]4[C@H]3CC[C@@]21C [Norethindrone]
AKR1C1; [1]
  Enzyme activity (inhibition/activation): inhibition

## C[C@]12CC[C@H]3C(=CCc4cc(O)ccc43)[C@@H]1CCC2=O [Equilin]
AKR1C1; [1]
  Enzyme activity (inhibition/activation): inhibition

## O=c1c(-c2ccc(O)cc2)coc2cc(O)cc(O)c12 [Genistein]
AKR1C1; [1]
  Enzyme activity (inhibition/activation): inhibition

## O=c1c(O)c(-c2ccccc2)oc2ccccc12 [3-Hydroxyflavone]
AKR1C1; [1]
  Enzyme activity (inhibition/activation): inhibition

## O=c1oc2cc(O)ccc2c2oc3cc(O)ccc3c12 [Coumestrol]
AKR1C1; [1]
  Enzyme activity (inhibition/activation): inhibition

## CC(C)C1=CC2=CC[C@@H]3[C@](C)(CCC[C@@]3(C)C(=O)O)[C@H]2CC1 [Abietic Acid]
AKR1C1; [1]
  Enzyme activity (inhibition/activation): inhibition

## CC(=O)O[C@]1(C(C)=O)CC[C@H]2[C@@H]3C[C@H](C)C4=CC(=O)CC[C@]4(C)[C@H]3CC[C@@]21C [Medroxyprogesterone Acetate]
AKR1C1; [1]
  Enzyme activity (inhibition/activation): inhibition

## O=C1CCCC1 [Cyclopentanone]
AKR1C1; [1]
  Enzyme activity (inhibition/activation): inhibition

## COc1ccc2c(c1)c(CC(=O)O)c(C)n2C(=O)c1ccc(Cl)cc1 [Indomethacin]
AKR1C1; [1]
  Enzyme activity (inhibition/activation): inhibition

## COc1ccc(-c2coc3cc(O)cc(O)c3c2=O)cc1 [Biochanin A]
AKR1C1; [1]
  Enzyme activity (inhibition/activation): inhibition

## CC/C(=C(\c1ccccc1)c1ccc(OCCN(C)C)cc1)c1ccccc1 [Tamoxifen]
AKR1C1; [1]
  Enzyme activity (inhibition/activation): inhibition

## O=C1C[C@@H](c2ccc(O[C@@H]3O[C@H](CO)[C@@H](O)[C@H](O)[C@H]3O)cc2)Oc2cc(O)ccc21 [Liquiritin]
AKR1C1; [1]
  Enzyme activity (inhibition/activation): inhibition
AKR1C1
  kind of AKR1C1 inhibition: selective and potent AKR1C1 inhibitor

## Cc1ccc(Cl)c(Nc2ccccc2C(=O)O)c1Cl [Meclofenamic Acid]
AKR1C1; [1]
  Enzyme activity (inhibition/activation): inhibition

## O=C1CN=C(c2ccccc2)c2cc([N+](=O)[O-])ccc2N1 [Nitrazepam]
AKR1C1
  Enzyme activity (inhibition/activation): inhibition

## O=C1CN=C(c2ccccn2)c2cc(Br)ccc2N1 [Bromazepam]
AKR1C1
  Enzyme activity (inhibition/activation): inhibition

## CN1CCN=C(c2ccccc2)c2cc(Cl)ccc21 [Medazepam]
AKR1C1; [1]
  Enzyme activity (inhibition/activation): inhibition
AKR1C1
  kind of AKR1C1 inhibition: non-competitive inhibitors

## Cc1cc(CC(=O)O)n(C)c1C(=O)c1ccc(Cl)cc1 [Zomepirac]
AKR1C1; [1]
  Enzyme activity (inhibition/activation): inhibition

## O=c1cc(-c2ccccc2)oc2cccc(O)c12 [5-Hydroxyflavone]
AKR1C1; [1]
  Enzyme activity (inhibition/activation): inhibition

## COC1=C(OC)C(=O)c2ccccc2C1=O [2,3-Dimethoxynaphthalene-1,4-Dione, 2,3-dimethoxynaphthalene-1,4-dione]
AKR1C1; [1]
  Enzyme activity (inhibition/activation): activation

## O=c1c(O)c(-c2ccc(O)cc2)oc2cc(O)cc(O)c12 [Kaempferol]
AKR1C1; [1]
  Enzyme activity (inhibition/activation): inhibition

## CC(=O)Nc1ccc(O)cc1 [Paracetamol]
AKR1C1; [1]
  Enzyme activity (inhibition/activation): inhibition

## CCc1cccc2c3c([nH]c12)C(CC)(CC(=O)O)OCC3 (centres unmarked) [Etodolac]
AKR1C1; [1]
  Enzyme activity (inhibition/activation): inhibition

## Clc1ccc2c(c1)C(c1ccccc1)=NCc1nncn1-2 [Estazolam]
AKR1C1; [1]
  Enzyme activity (inhibition/activation): inhibition

## OO [Hydrogen peroxide]
AKR1C1; [1]
  Enzyme activity (inhibition/activation): activation

## O=c1cc(-c2ccccc2)oc2cc(O)cc(O)c12 [Chrysin, 5,7-Dihydroxyflavone]
AKR1C1; [1]
  Enzyme activity (inhibition/activation): inhibition

## O=c1cc(-c2ccccc2)oc2ccccc12 [Flavone]
AKR1C1; [1]
  Enzyme activity (inhibition/activation): inhibition

## O=c1ccc2ccccc2o1 [Coumarin]
AKR1C1; [1]
  Enzyme activity (inhibition/activation): inhibition

## CC/C=C\CC1C(=O)CCC1CC(=O)OC (centres unmarked) [Methyl Jasmonate]
AKR1C1; [1]
  Enzyme activity (inhibition/activation): inhibition

## O=C(O)c1cccc(Oc2ccccc2)c1 [3-Phenoxybenzoic Acid]
AKR1C1; [1]
  Enzyme activity (inhibition/activation): inhibition

## O=c1cc(-c2ccc(O)cc2)oc2cc(O)cc(O)c12 [Apigenin]
AKR1C1; [1]
  Enzyme activity (inhibition/activation): inhibition

## C[C@H](O)[C@H]1CC[C@H]2[C@@H]3C=CC4=CC(=O)CC[C@@]4(C)[C@@H]3CC[C@]12C [20α-Hydroxydydrogesterone]
AKR1C1; [1]
  Enzyme activity (inhibition/activation): inhibition

## O=C1CN2CCOC2(c2ccccc2Cl)c2cc(Cl)ccc2N1 (centres unmarked) [Cloxazolam]
AKR1C1
  Enzyme activity (inhibition/activation): inhibition

## O=c1c(-c2ccc(O)cc2)coc2cc(O)ccc12 [Daidzein]
AKR1C1; [1]
  Enzyme activity (inhibition/activation): inhibition

## O=C1C[C@@H](c2ccc(O)cc2)Oc2cc(O)cc(O)c21 [Naringenin]
AKR1C1; [1]
  Enzyme activity (inhibition/activation): inhibition

## O=c1c(O)c(-c2ccc(O)c(O)c2)oc2cc(O)cc(O)c12 [Quercetin]
AKR1C1; [1]
  Enzyme activity (inhibition/activation): inhibition

## NADP(H) [NADP(H) (NPD)]
AKR enzymes
  Kd: 100 nM

## Sennosides
PGE2 and PGF2α levels
  Activity (prostaglandin levels): increase PGE2 formation

## CC1=C(CC(=O)O)c2cc(F)ccc2/C1=C\c1ccc([S+](C)[O-])cc1 (centres unmarked) [Sulindac]
AKR1C1; [1]
  Enzyme activity (inhibition/activation): inhibition

## CC(=O)[C@H]1CC[C@H]2[C@@H]3C=CC4=CC(=O)CC[C@@]4(C)[C@@H]3CC[C@]12C [Dydrogesterone]
AKR1C1; [1]
  Enzyme activity (inhibition/activation): inhibition

## CC(C(=O)O)c1cccc(C(=O)c2ccccc2)c1 (centres unmarked) [Ketoprofen]
AKR1C1; [1]
  Enzyme activity (inhibition/activation): inhibition

## O=c1cc(-c2ccccc2)oc2cc(O)ccc12 [7-Hydroxyflavone]
AKR1C1; [1]
  Enzyme activity (inhibition/activation): inhibition

## COc1cccc2oc(-c3ccccc3)cc(=O)c12 [5-Methoxyflavone]
AKR1C1; [1]
  Enzyme activity (inhibition/activation): inhibition
